Assay [1] has as its target T1, BIN1-SH3 (Homo sapiens, UniProt O00499).
T1 construct: GST (cleaved yes); Genecast (peptides); host or cells: E. coli BL21-DE3 GOLD
T1 sequence (O00499 520-593 limits assumed): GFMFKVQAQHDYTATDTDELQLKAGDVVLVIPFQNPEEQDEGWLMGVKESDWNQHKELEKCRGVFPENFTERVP
Put plainly: Fluorescence polarization saturation binding, BIN1-SH3 domain with FITC-labeled hnRNP G peptide. The following applies: FITC-labeled peptide 10 nM. The method, then: (§1) To further investigate if the tri-proline region spanning the variant had the capacity to interact with SH3 domains, a fluorescence polarization assay with hnRNP G peptides and SH3 domains were performed. Wildtype and mutant (△P162) hnRNP G peptides of different lengths spanning the region of interest (P38159) were ordered from Genecast (Supplementary material 2) with or without Fluorescein isothiocyanate (FITC)-label (purity >95%, dissolved in 50 mM potassium phosphate pH 7.5). Two SH3 domains were expressed and purified: ASAP1-SH3 (Addgene: 91501), BIN1-SH3 (GenScript) according to standard protocol (Supplementary material 2). […]
(§2) To determine the affinity between BIN-SH3 domain and the non-labeled hnRNP G peptides, displacement experiments were performed where the fixed concentration of FITC-labeled peptide and protein was mixed with an increasing concentration of displacer non-labeled peptide. […] All results were analyzed with GraphPad Prism to determine the dissociation constant for labeled peptide and the IC50 values, and Microsoft Excel was used to calculate KD from IC50. All fluorescence polarization experiments were performed in 50 mM potassium phosphate pH 7.5, containing 1 mM tris(2-carboxyethyl)phosphine (TCEP). […]

Assay [2] concerns the target T2, ASAP1-SH3 (Homo sapiens, UniProt Q9ULH1).
T2 construct: Two SH3 domains were expressed and purified: ASAP1-SH3 (Addgene: 91501), BIN1-SH3 (GenScript); GST (cleaved yes); host or cells: E. coli BL21-DE3 GOLD
T2 sequence (Q9ULH1 1067-1129 limits assumed): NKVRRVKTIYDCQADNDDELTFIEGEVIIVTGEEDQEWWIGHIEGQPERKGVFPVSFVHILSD
Put plainly: Fluorescence polarization saturation binding, ASAP1-SH3 domain with FITC-labeled hnRNP G peptide. The following applies: FITC-labeled peptide 10 nM. The method, then: as §1, §2
A general note: In fluorescence polarisation assays a small probe gives low polarisation when free and higher when bound to something large.

The target of assay [3] is T1, BIN1-SH3. Kind of assay: Fluorescence polarization displacement, BIN1-SH3 domain with non-labeled hnRNP G peptides. It is filed as binding. Conditions: for binding affinity for BIN1-SH3 (in words): fluorescence polarization, 50 mM potassium phosphate pH 7.5, 1 mM TCEP. The procedure:
(§3) To further investigate if the tri-proline region spanning the variant had the capacity to interact with SH3 domains, a fluorescence polarization assay with hnRNP G peptides and SH3 domains were performed. Wildtype and mutant (△P162) hnRNP G peptides of different lengths spanning the region of interest (P38159) were ordered from Genecast (Supplementary material 2) with or without Fluorescein isothiocyanate (FITC)-label (purity >95%, dissolved in 50 mM potassium phosphate pH 7.5). Two SH3 domains were expressed and purified: ASAP1-SH3 (Addgene: 91501), BIN1-SH3 (GenScript) according to standard protocol (Supplementary material 2).
(§4) To determine the affinity between BIN-SH3 domain and the non-labeled hnRNP G peptides, displacement experiments were performed where the fixed concentration of FITC-labeled peptide and protein was mixed with an increasing concentration of displacer non-labeled peptide. The mP signal was investigated to determine the IC50 values, which were then converted to dissociation constants as previously described. All results were analyzed with GraphPad Prism to determine the dissociation constant for labeled peptide and the IC50 values, and Microsoft Excel was used to calculate KD from IC50. All fluorescence polarization experiments were performed in 50 mM potassium phosphate pH 7.5, containing 1 mM tris(2-carboxyethyl)phosphine (TCEP).
SH3 domains were expressed by transforming expression constructs into E. coli (BL21-DE3 GOLD) and grown in LB media with 50 µg/ml ampicillin (ASAP1) or 50 µg/ml kanamycin (BIN1) at 37°C until reaching an OD600 of 0.6. Protein expression was induced with 1mM isopropyl-β-thiogalactopyranoside and the protein expression proceeded overnight at 18 °C. Cells were harvested and resuspended in lysis buffer (50 mM Tris/HCl pH 7.8, 10 µg/mL DNase I and RNase A (Hoffman-La Roche, Switzerland), 300 mM NaCl, 4 mM MgCl2, 2 mM CaCl2 and cOmplete EDTA-free Protease Inhibitor Cocktail (Hoffman-La Roche)) and lysed by sonication. Cell lysate was clarified by centrifugation at 20,000 g for 40 min, filtered and transferred to Glutathione Sepharose 4 Fast Flow media (GE Healthcare). After 30-minute incubation, glutathione media was washed with wash buffer (50 mM Tris/HCl pH 7.8 300 mM NaCl, 4 mM DTT), eluted with elution buffer (50 mM Tris/HCl pH 7.8 300 mM NaCl, 4 mM DTT, 10 mM reduced glutathione), and the GST-tag was cleaved overnight with PreScission protease (BIN1) or Thrombin (ASAP1). Next day the cleaved protein was applied to a […] to remove the tag, and pure protein was dialyzed into 50 mM potassium phosphate buffer pH 7.4, and concentrated using the Amicon ultra 15ml centrifugal filters (3kDa cutoff, Merck Millipore, UFC900308). Purity of the sample was analyzed by SDS-PAGE and its identity confirmed by MALDI-TOF mass spectrometry. The sample was then frozen until fluorescence polarization experiments were performed.

The target of assay [4] is T2, ASAP1-SH3. Kind of assay: Fluorescence polarization displacement, ASAP1-SH3 domain. It is filed as binding. The method, then: as §3
as §4, with “(TCEP). […]” for “(TCEP).”

Assay [5] has as its target T3, BIN1 SH3 (Homo sapiens, UniProt O00499).
T3 chain: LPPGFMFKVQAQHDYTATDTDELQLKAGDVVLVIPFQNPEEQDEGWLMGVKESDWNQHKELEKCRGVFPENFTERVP
Put plainly: fluorescence polarization saturation.

In assay [6] the target is T4, ASAP1 SH3 (Homo sapiens, UniProt Q9ULH1).
T4 chain: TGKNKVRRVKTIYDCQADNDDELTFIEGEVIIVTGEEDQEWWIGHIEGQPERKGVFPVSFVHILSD
Kind of assay: fluorescence polarization saturation.

The target of assay [7] is T3, BIN1 SH3. Put plainly: fluorescence polarization displacement.

Where a SMILES comes first, the peptide text is derived from it. Where no end group is shown, it is not given here.

For the molecule “150-KRGPPPRSGGPPPKRSAPSGPy-170 [hnRNP G aa 150-170, wildtype FITC, FITC-labeled wildtype hnRNP G peptide, residues 150-170]”, the “binding to BIN1-SH3 (in words)” value in assay [1] is listed as “binding with moderate affinities”. For the same molecule, the “binding to ASAP1-SH3 (in words)” value in assay [2] was “binding with moderate affinities”.

On to `C[C@H](NC(=O)[C@H](CO)NC(=O)[C@H](CCCNC(=N)N)NC(=O)[C@H](CCCCN)NC(=O)[C@@H]1CCCN1C(=O)[C@@H]1CCCN1C(=O)[C@@H]1CCCN1C(=O)CNC(=O)CNC(=O)[C@H](CO)NC(=O)[C@H](CCCNC(=N)N)NC(=O)[C@@H]1CCCN1C(=O)[C@@H]1CCCN1C(=O)CNC(=O)[C@H](CCCNC(=N)N)NC(=O)[C@@H](N)CCCCN)C(=O)N1CCC[C@H]1C(=O)N[C@@H](CO)C(=O)NCC(=O)N1CCC[C@H]1C(=O)N[C@@H](Cc1ccc(O)cc1)C(=O)O` [hnRNP G aa 150-170, △P162] (H-KRGPPRSGGPPPKRSAPSGPY-OH; N-terminus and C-terminus assumed), for which the “binding affinity for BIN1-SH3 (in words)” value was “no clear difference in binding affinity compared to the wildtype peptide” in assay [3]; “no clear difference in SH3 binding affinity between the wildtype and the mutant peptide” in assay [3] (listed as longer hnRNP G peptide, △P162 variant).

Regarding `C[C@H](NC(=O)[C@H](CO)NC(=O)[C@H](CCCNC(=N)N)NC(=O)[C@H](CCCCN)NC(=O)[C@@H]1CCCN1C(=O)[C@@H]1CCCN1C(=O)[C@@H]1CCCN1C(=O)CNC(=O)CNC(=O)[C@H](CO)NC(=O)[C@@H](N)CCCNC(=N)N)C(=O)N1CCC[C@H]1C(=O)N[C@@H](CO)C(=O)NCC(=O)N[C@@H](Cc1ccc(O)cc1)C(=O)O` [hnRNP G aa 156-169, wildtype] (H-RSGGPPPKRSAPSGY-OH; N-terminus and C-terminus assumed), the “binding affinity for BIN1-SH3 (in words)” value in assay [3] is reported as “moderate affinities”; in assay [3] (listed as shorter hnRNP G peptide (aa 156–169)) it was “weaker but comparable affinity”. For the same molecule, the “binding affinity for ASAP1-SH3 (in words)” value in assay [4] is “moderate affinities”.

`C[C@H](NC(=O)[C@H](CO)NC(=O)[C@H](CCCNC(=N)N)NC(=O)[C@H](CCCCN)NC(=O)[C@@H]1CCCN1C(=O)[C@@H]1CCCN1C(=O)CNC(=O)CNC(=O)[C@H](CO)NC(=O)[C@@H](N)CCCNC(=N)N)C(=O)N1CCC[C@H]1C(=O)N[C@@H](CO)C(=O)NCC(=O)N[C@@H](Cc1ccc(O)cc1)C(=O)O` [hnRNP G aa 156-169, △P162] (H-RSGGPPKRSAPSGY-OH; N-terminus and C-terminus assumed): in assay [3], the “binding affinity for BIN1-SH3 (in words)” value was “reduced binding affinity”. Also, the “affinity for BIN1-SH3 relative to wildtype peptide (fold)” value in assay [3] (short peptide aa 156–169 △P162 vs wildtype) is given as “threefold weaker affinity”.

KRGPPPRSGGPPPKRSAPSGP (also: FITC-labeled, site not given here): the Kd in assay [5] and in assay [6] was about 400 µM each time.

For KRGPPPRSGGPPPKRSAPSGP, in assay [7], the Kd worked out at 40 µM.

In the case of RSGGPPPKRSAPSG [hnRNP G 156-169], the Kd in assay [7] was 150 µM.

For orientation: Kd means the free concentration of one partner at which half of the binding sites on the other are occupied at equilibrium, for simple one-to-one binding. The low end stands for higher affinity, the high end for lower affinity.

The values above are taken from PMC10923852, “Gustavson syndrome is caused by an in-frame deletion in RBMX associated with potentially disturbed SH3 domain interactions” (European Journal of Human Genetics, 2023).
